Columns and labels:
PDE4 = assay: Inhibition of PDE4 activity ([3H]cAMP hydrolysis, cytosol from human neutrophils); format: biochemical; conditions: 0.5 μM cAMP, Motapizone 1 μM to suppress PDE3, 15 min at 37° C.
Experimental: Method for Measuring Inhibition of PDE4 Activity
PDE4 activity was determined as described by Thompson et al. (Adv Cycl Nucl Res 10: 69-92, 1979) with some modifications (Bauer and Schwabe, Naunyn-Schmiedeberg's Arch Pharmacol 311: 193-198, 1980). At a final assay volume of 200 μl (96 well microtiter plates) the assay mixture contained 20 mM Tris (pH 7.4), 5 mM MgCl2, 0.5 μM cAMP, [^3H]cAMP (about 30,000 cpm/assay), the test compound and an aliquot of cytosol from human neutrophils which mainly contains PDE4 activity as described by Schudt et al. (Naunyn-Schmiedeberg's Arch Pharmacol 344: 682-690, 1991); the PDE3-specific inhibitor Motapizone (1 μM) was included to suppress PDE3 activity originating from contaminating platelets. Serial dilutions of the compounds were prepared in DMSO and further diluted 1:100 (v/v) in the assays to obtain the desired final concentrations of the inhibitors at a DMSO concentration of 1% (v/v) which by itself only slightly affected PDE4 activity.
After preincubation for 5 min at 37° C., the reaction was started by the addition of substrate (cAMP) and the assays were incubated for further 15 min at 37° C. 50 μl of 0.2 N HCl was added to stop the reaction and the assays were left on ice for about 10 min. Following incubation with 25 μg 5′-nucleotidase (Crotalus atrox snake venom) for 10 min at 37° C., the assays were loaded on QAE Sephadex A-25 (1 ml bed volume). The columns were eluted with 2 ml of 30 mM ammonium formiate (pH 6.0) and the eluate was counted for radioactivity. Results were corrected for blank values (measured in the presence of denatured protein) which were below 5% of total radioactivity. […] The IC50-values for the compounds according to the invention for the inhibition of the PDE4 activity were determined from the concentration-inhibition curves by nonlinear-regression.

Q: Which “Inhibition of the PDE4 activity, −log IC50” value (“Inhibition … −log IC50” for short) (PDE4) does the source give for `COc1cc2c(cc1OC)[C@H]1CCCC[C@H]1N=C2c1ccc(C(=NNC(N)=O)c2ccccc2)cc1` [Compound 7, 1-[4-((4aR,10bR)-8,9-Dimethoxy-1,2,3,4,4a,10b-hexahydro-phenanthridin-6-yl)-phenyl]-1-phenyl-methanone-semicarbazone] here?
A: The value was 9.38.

Q: Which “Inhibition … −log IC50” value (PDE4) does the source give for `COc1cc2c(cc1OC)[C@H]1CCCC[C@H]1N=C2c1ccc(C(C)=NNC(N)=O)cc1` [Compound 6, 1-[4-((4aR,10bR)-8,9-Dimethoxy-1,2,3,4,4a,10b-hexahydro-phenanthridin-6-yl)-phenyl]-ethanone-semicarbazone] here?
A: Its value is 8.64.

Q: Which “Inhibition … −log IC50” value (PDE4) does the source give for `COc1cc2c(cc1OC)[C@H]1CCCC[C@H]1N=C2c1ccc(C(C)=NNC(C)=O)cc1` [Compound 4, Acetic acid {1-[4-((4aR,10bR)-8,9-dimethoxy-1,2,3,4,4a,10b-hexahydro-phenanthridin-6-yl)-phenyl]-ethylidene}-hydrazide] here?
A: Its value is 8.95.

Q: Which results are given for `COc1cc2c(cc1OC)[C@H]1CCCC[C@H]1N=C2c1ccc(C(C)=NNC(=O)c2cccnc2)cc1` [Compound 1, Nicotinic acid {1-[4-((4aR,10bR)-8,9-dimethoxy-1,2,3,4,4a,10b-hexahydro-phenanthridin-6-yl)-phenyl]-ethylidene}-hydrazide]?
A: Inhibition of the PDE4 activity, −log IC50 (PDE4): 8.62; melting point: 162 °C

Q: With `COc1cc2c(cc1OC)[C@H]1CCCC[C@H]1N=C2c1ccc(C(C)=NNC(=O)c2ccncc2)cc1` [Compound 3, Isonicotinic acid {1-[4-((4aR,10bR)-8,9-dimethoxy-1,2,3,4,4a,10b-hexahydro-phenanthridin-6-yl)-phenyl]-ethylidene}-hydrazide] as the molecule, how does the “Inhibition … −log IC50” value (PDE4) read?
A: Its value is 8.71.

Q: For `COc1cc2c(cc1OC)C1CCCCC1N=C2c1cccc(C(C)=NNC(N)=O)c1` (centres unmarked) [Compound 37, 1-[3-((4aR10bR)-8,9-Dimethoxy-1,2,3,4,4a,10b-hexahydro-phenanthridin-6-yl)-phenyl]-ethanone-semicarbazone], which “Inhibition … −log IC50” value (PDE4) is on record?
A: The value was 8.75.

Q: Which “Inhibition … −log IC50” value (PDE4) does the source give for `COc1cc2c(cc1OC)[C@H]1CCCC[C@H]1N=C2c1ccc(C(C)=NNC(=O)CC#N)cc1` [Compound 2, Cyano-acetic acid {1-[4-((4aR,10bR)-8,9-dimethoxy-1,2,3,4,4a,10b-hexahydro-phenanthridin-6-yl)-phenyl]-ethylidene}-hydrazide] here?
A: Its value is 8.61.

Reference: patent publication US20060189645A1, “Novel 6-phenylphenantridines” (Altana Pharma AG, priority 2003, published 2006)
